# Test results from patent US8841343B2, “Composition for repelling mosquitoes” (Bio & Hnt, Inc., priority 2006, dated 2014).
# Test system: Aedes aegypti
# Test: Examination of repellent activity using skin test (treated human forearm in cage of about 100 mated female mosquitoes)
# Type: in vivo
# Conditions: for Effective repellency duration (hour) (mean ± standard deviation): maximum measurement time 12 hours
# Description: Citronellic acid and geranic acid, which are used in the present invention, are commercially available or can directly be synthesized. In this embodiment, products of Aldrich Co. (product names are respectively Citronellic acid and Geranic acid) were purchased and used as citronellic acid and geranic acid. Purities of the above two compounds were examined using a gas chromatograph (GC) and a gas chromatograph-mass spectrometry (GC-MS). The compounds having purity of 99.5% or greater were only used. Respective ingredients of the above compounds were added to isopropyl alcohol of 91% to make test samples consisting of a solution in the concentration of 0.5 to 50%. The samples were used for mosquito repellent efficacy experiments.
# The test samples manufactured as above underwent repellent effective experiments with respect to Aedes which is a main mosquito group attacking human.
# In this embodiment, Aedes aegypti was used as test mosquitoes. The Aedes aegypti was supplied from Korea Research Institute of Bioscience and Biotechnology and reared indoor from generation to generation.
# The larvae of the Aedes aegypti were reared in a plastic container of 22×14×7 cm containing distilled water with small amount of one-to-one mixture of chicken feed and yeast. Fresh mosquito pupae were transferred into a paper cup containing water and then placed in a transparent rearing cage to emerge as adults. Here, the rearing cage was constructed with metal net. Males and females of the freshly emerged mosquitoes were transferred to a rearing cage at one-to-one ratio, and left for two or three days for mating. The female mosquitoes were then used for repellency tests. Eight percent (8%) sugar water was supplied for the adult mosquitoes. The following rearing conditions were maintained: light condition of 16 h:8 h (day:night), temperature of 27±2° C., and relative humidity of 80±10%.
# In order to examine effectiveness of the mosquito repellent of the prepared sample solutions, one (1) ml of a sample solution was uniformly applied, using a metal rod, on a forearm of a volunteer human test subject between wrist and elbow. Thereafter, the arm treated with the test solution was inserted in a bioassay cage, constructed with Plexiglass of 50×50×50 cm containing approximately 100 mated female mosquitoes. The number of mosquitoes trying to bite was recorded for three minutes in every thirty minutes for up to 4 hours or in every hour for up to 12 hours. The time required to get the arm bitten by two cumulative mosquitoes was regarded as effective repellency duration. A net window of 40×40 cm was present at each side and top of the Plexiglass bioassay cage to allow air ventilation. A 15×15 cm hole was prepared at the front side of the Plexiglass bioassay cage and a long net sleeve was attached to the hole so that the test arm could be put into the cage for repellency test.
# At the beginning of each repellency test, an arm treated with no solvent was placed in the bioassay cage containing mosquitoes, in order to examine blood feeding activity of the mated female test mosquitoes. The repellency tests with the test solutions were carried out only when the arm was bitten by at least two mosquitoes for initial three minutes.
# Repellent activity against Aedes was examined in accordance with the aforementioned method using the samples which respectively contain citronellic acid and geranic acid. Also, mosquito repellent activity was measured with solutions which contain DEET and Picadirin, wherein the DEET and Picadirin are commercially available mosquito repellents which are currently recommended by the Center for Disease Control of the United States.
# In Table 4 to Table 6, the repellent efficiency was calculated using the following Equation 1.
# [1] = 10% (0.25 mg/cm^3), 120 minutes
# [2] = 10% (0.25 mg/cm^3), 150 minutes
# [3] = 10% (0.25 mg/cm^3), 180 minutes
# [4] = 10% (0.25 mg/cm^3), 210 minutes
# [5] = 10% (0.25 mg/cm^3), 240 minutes
# [6] = concentration 10% (0.25 mg/cm^3), time until two cumulative bites, maximum measurement time 240 minutes
compound,measurement,setting,value
"CC(C)=CCC/C(C)=C/C(=O)O [Geranic acid, geranic acid]",Repellent efficiency (%) per time (minutes),"2% (0.05 mg/cm^3), 30 minutes",100%
same,Repellent efficiency (%) per time (minutes),"2% (0.05 mg/cm^3), 60 minutes",100%
same,Repellent efficiency (%) per time (minutes),"2% (0.05 mg/cm^3), 90 minutes",100%
same,Repellent efficiency (%) per time (minutes),"2% (0.05 mg/cm^3), 120 minutes",100%
same,Repellent efficiency (%) per time (minutes),"2% (0.05 mg/cm^3), 150 minutes",83.3%
same,Repellent efficiency (%) per time (minutes),"2% (0.05 mg/cm^3), 180 minutes",50.0%
same,Repellent efficiency (%) per time (minutes),"2% (0.05 mg/cm^3), 210 minutes",50.0%
same,Repellent efficiency (%) per time (minutes),"2% (0.05 mg/cm^3), 240 minutes",33.3%
same,Repellent efficiency (%) per time (minutes),"10% (0.25 mg/cm^3), 30 minutes",100%
same,Repellent efficiency (%) per time (minutes),"10% (0.25 mg/cm^3), 60 minutes",100%
same,Repellent efficiency (%) per time (minutes),"10% (0.25 mg/cm^3), 90 minutes",100%
same,Repellent efficiency (%) per time (minutes),[1],100%
same,Repellent efficiency (%) per time (minutes),[2],100%
same,Repellent efficiency (%) per time (minutes),[3],100%
same,Repellent efficiency (%) per time (minutes),[4],100%
same,Repellent efficiency (%) per time (minutes),[5],87.5%
same,Repellent efficiency (%) per time (hours),"15% (0.375 mg/cm^3), 1 hour",100%
same,Repellent efficiency (%) per time (hours),"15% (0.375 mg/cm^3), 2 hours",100%
same,Repellent efficiency (%) per time (hours),"15% (0.375 mg/cm^3), 3 hours",100%
same,Repellent efficiency (%) per time (hours),"15% (0.375 mg/cm^3), 4 hours",81.8%
same,Repellent efficiency (%) per time (hours),"15% (0.375 mg/cm^3), 5 hours",72.7%
same,Repellent efficiency (%) per time (hours),"15% (0.375 mg/cm^3), 6 hours",54.5%
same,Repellent efficiency (%) per time (hours),"15% (0.375 mg/cm^3), 7 hours",54.5%
same,Repellent efficiency (%) per time (hours),"15% (0.375 mg/cm^3), 8 hours",54.5%
same,Repellent efficiency (%) per time (hours),"15% (0.375 mg/cm^3), 9 hours",45.5%
same,Repellent efficiency (%) per time (hours),"30% (0.75 mg/cm^3), 1 hour",100%
same,Repellent efficiency (%) per time (hours),"30% (0.75 mg/cm^3), 2 hours",100%
same,Repellent efficiency (%) per time (hours),"30% (0.75 mg/cm^3), 3 hours",100%
same,Repellent efficiency (%) per time (hours),"30% (0.75 mg/cm^3), 4 hours",100%
same,Repellent efficiency (%) per time (hours),"30% (0.75 mg/cm^3), 5 hours",100%
same,Repellent efficiency (%) per time (hours),"30% (0.75 mg/cm^3), 6 hours",85.7%
same,Repellent efficiency (%) per time (hours),"30% (0.75 mg/cm^3), 7 hours",85.7%
same,Repellent efficiency (%) per time (hours),"30% (0.75 mg/cm^3), 8 hours",85.7%
same,Repellent efficiency (%) per time (hours),"30% (0.75 mg/cm^3), 9 hours",85.7%
same,Repellent efficiency (%) per time (hours),"30% (0.75 mg/cm^3), 10 hours",85.7%
same,Repellent efficiency (%) per time (hours),"30% (0.75 mg/cm^3), 11 hours",78.6%
same,Repellent efficiency (%) per time (hours),"30% (0.75 mg/cm^3), 12 hours",71.4%
same,Repellent efficiency (%) per time (hours),"50% (1.25 mg/cm^3), 1 hour",100%
same,Repellent efficiency (%) per time (hours),"50% (1.25 mg/cm^3), 2 hours",100%
same,Repellent efficiency (%) per time (hours),"50% (1.25 mg/cm^3), 3 hours",100%
same,Repellent efficiency (%) per time (hours),"50% (1.25 mg/cm^3), 4 hours",100%
same,Repellent efficiency (%) per time (hours),"50% (1.25 mg/cm^3), 5 hours",100%
same,Repellent efficiency (%) per time (hours),"50% (1.25 mg/cm^3), 6 hours",100%
same,Repellent efficiency (%) per time (hours),"50% (1.25 mg/cm^3), 7 hours",100%
same,Repellent efficiency (%) per time (hours),"50% (1.25 mg/cm^3), 8 hours",100%
same,Repellent efficiency (%) per time (hours),"50% (1.25 mg/cm^3), 9 hours",100%
same,Repellent efficiency (%) per time (hours),"50% (1.25 mg/cm^3), 10 hours",100%
same,Repellent efficiency (%) per time (hours),"50% (1.25 mg/cm^3), 11 hours",90%
same,Repellent efficiency (%) per time (hours),"50% (1.25 mg/cm^3), 12 hours",80%
same,repellency (in words),at the level of 0.0125 mg/cm^3,did not represent any repellency
same,time for which repellent efficiency of 100% was shown,at the level of 0.05 mg/cm^3,120 min
same,time for which repellent efficiency of 100% was shown,at the level of 0.25 mg/cm^3,210 min
same,Effective repellency duration (minute) (mean ± standard deviation),"concentration 0.5% (0.0125 mg/cm^3), time until arm bitten by two cumulative mosquitoes",0 ± 0 min
same,Effective repellency duration (minute) (mean ± standard deviation),"concentration 2% (0.05 mg/cm^3), time until arm bitten by two cumulative mosquitoes",195 ± 45.0 min
same,Effective repellency duration (minute) (mean ± standard deviation),"concentration 2% (0.05 mg/cm^3), time until arm bitten by two cumulative mosquitoes, listed as geranic acid",195 min
same,Effective repellency duration (minute) (mean ± standard deviation),[6],240 ± 0 min
same,Effective repellency duration (minute) (mean ± standard deviation),"concentration 10% (0.25 mg/cm^3), time until two cumulative bites, maximum measurement time 240 minutes, listed as geranic acid",240 min
same,Effective repellency duration (hour) (mean ± standard deviation),concentration 15% (0.375 mg/cm^3),6.7 ± 1.20 h
same,Effective repellency duration (hour) (mean ± standard deviation),concentration 30% (0.75 mg/cm^3),10.0 ± 2.00 h
same,Effective repellency duration (hour) (mean ± standard deviation),"concentration 30% (0.75 mg/cm^3), listed as geranic acid",10 h
same,Effective repellency duration (hour) (mean ± standard deviation),concentration 50% (1.25 mg/cm^3),12.0 ± 0 h
same,Effective repellency duration (hour) (mean ± standard deviation),"concentration 50% (1.25 mg/cm^3), listed as geranic acid",12 h
same,repellent efficiency,for 10 hours at the level of 0.75 mg/cm^3,~90%
same,repellent efficiency,for 10 hours at the level of 1.25 mg/cm^3,100%
"CCC(C)OC(=O)N1CCCCC1CCO (stereo not drawn) [Picadirin, reference compound]",Repellent efficiency (%) per time (minutes),"10% (0.25 mg/cm^3), 30 minutes",85.0%
same,Repellent efficiency (%) per time (minutes),"10% (0.25 mg/cm^3), 60 minutes",85.0%
same,Repellent efficiency (%) per time (minutes),"10% (0.25 mg/cm^3), 90 minutes",85.0%
same,Repellent efficiency (%) per time (minutes),[1],80.0%
same,Repellent efficiency (%) per time (minutes),[2],75.0%
same,Repellent efficiency (%) per time (minutes),[3],72.5%
same,Repellent efficiency (%) per time (minutes),[4],62.5%
same,Repellent efficiency (%) per time (minutes),[5],47.5%
same,time for which repellent efficiency of 100% was shown,at the level of 0.25 mg/cm^3,less than 30 minutes
same,Effective repellency duration (minute) (mean ± standard deviation),[6],158 min
same,Effective repellency duration (minute) (mean ± standard deviation),"concentration 10% (0.25 mg/cm^3), time until two cumulative bites, maximum measurement time 240 minutes, listed as Picadrin",158 ± 27.5 min
